Data: US8986733B2, “Materials and methods for nerve repair” (University of Florida Research Foundation, Inc., priority 2001, dated 2015)
“Also recorded” adds a separate entry of the source.

Legend:
[1] = system: cells of cultured nerve segments; test: Dissociation culture (squash preparations) of nerve segments; type: cell-based, rat; conditions: nerve segments cultured 2 days with and without GM6001
[2] = system: MMP gelatinolytic activity; test: In situ zymography of cultured nerve explants; type: biochemical, rat; conditions: nerves cultured 2-day, 2% serum in presence of GM6001
Protocol: In situ zymography for nerve predegeneration experiments. Cryosections (10 μm) of unfixed normal and cultured nerves were mounted on slides and overlaid with reaction buffer (50 mM Tris-HCl, 150 mM NaCl, 5 mM CaCl2, 0.2 mM sodium azide, pH 7.6) containing 20 μg/ml of intramolecularly quenched, fluorescein-labeled gelatin substrate (MOLECULAR PROBES INC., Eugene, Oreg.) (Oh et al., 1999). In the control condition, the MMP inhibitor EDTA (30 mM) was included in the reaction buffer. After incubation for 24 h at 37° C., the sections were rinsed with PBS and fixed with 4% paraformaldehyde in phosphate buffer. The sections were rinsed with water and mounted using Citifluor. Fluorescein-gelatin peptides generated by gelatinolytic activity in the tissue sections were observed and photographed by epifluorescence microscopy.
The activity of MMPs is regulated by gene transcription, proenzyme activation and by the action of tissue inhibitors of metalloproteinases. The net gelatinolytic activity in nerve segments by in situ zymography was examined. Tissue sections were overlaid with quenched, fluorescein-gelatin, which is converted to fluorescent peptides by gelatinolytic activity within tissues. Constitutive gelatinolytic activity was detected in normal nerve mostly associated with Schwann cells aligned along the endoneurial basal lamina (as shown in FIGS. 17A and 17B). […]

[3] = system: embryonic chick DRG neurons; test: Cryoculture assay of nerve explant cultures (predegeneration); type: cell-based; conditions: 2-day, 2% serum culture with GM6001 (50 μM); 68% without
Excerpt: Nerve explant culture for predegeneration experiments. Adult (180-200 gm) female SPRAGUE DAWLEY rats (HARLAN, Indianapolis, Ind.) were used as nerve donors and graft recipients. This project was reviewed and approved by the Institutional Animal Care and Use Committee. Donor rats were deeply anesthetized with isofluorane and decapitated. Sciatic nerves were exposed through a gluteal muscle-splitting incision and isolated free of underlying fascia. A 15-mm nerve segment was excised rostral to the bifurcation into common peroneal and tibial nerves. The segments were rinsed with sterile Ringer's solution and stabilized by pinning the ends to a thin plastic support. […]
Cryoculture bioassay. […] Neurite lengths were measured directly using IMAGE-PRO PLUS software (MEDIA CYBERNETICS, Silver Springs, Md.). At least 250 neurons with neurites greater than one cell body (˜15 μm) were scored for each condition in each experiment.
Freshly excised (cellular) rat sciatic nerve segments were cultured for up to 7 days in medium containing 0, 2 and 10% fetal bovine serum. Control (uncultured) and cultured nerves were cryosectioned and their neurite-promoting activity was assessed by cryoculture assay. […]

Q: For `CNC(=O)[C@H](Cc1c[nH]c2ccccc12)NC(=O)[C@@H](CC(=O)NO)CC(C)C` [GM6001], which “cell viability (cell outgrowth)” value [1] is on record?
A: Its value is “no loss of cell viability”.

Q: And the “gelatinolytic activity in treated nerve explants” value [2]?
A: The value was “nearly undetectable; also recorded: markedly decreased”.

Q: And the “increase in neurite length over control nerves for nerves cultured in presence of inhibitor” value [3]?
A: The value was 14%.
